Laboratory results from ChEMBL document CHEMBL6083176, “Fluorescence theranostic PROTACs for real-time visualization of ERα degradation” (Eur J Med Chem, 2024).
Calls of active or inactive are those of the source. The calls are words filed in the database; no cut-off is given here. Peptide text beside a SMILES is read from it. * marks the point of attachment. Cbz = O=C(OCc1ccccc1)*

Legend:
MCF7 [1] = assay: Antiproliferative activity against human MCF7 cells assessed as reduction in cell viability incubated for 48 hrs by MTT assay; format: functional, cell-based; conditions: MCF7, 48 h
[2] = target: Estrogen receptor beta (Homo sapiens) (UniProt Q92731); assay: Binding affinity to ERbeta (unknown origin) assessed as relative binding affinity incubated for 2 hrs in presence of coumestrol by fluorescence polarization based competitive binding assay relative to estradiol
Estrogen receptor beta (Homo sapiens), sequence (Q92731 whole entry): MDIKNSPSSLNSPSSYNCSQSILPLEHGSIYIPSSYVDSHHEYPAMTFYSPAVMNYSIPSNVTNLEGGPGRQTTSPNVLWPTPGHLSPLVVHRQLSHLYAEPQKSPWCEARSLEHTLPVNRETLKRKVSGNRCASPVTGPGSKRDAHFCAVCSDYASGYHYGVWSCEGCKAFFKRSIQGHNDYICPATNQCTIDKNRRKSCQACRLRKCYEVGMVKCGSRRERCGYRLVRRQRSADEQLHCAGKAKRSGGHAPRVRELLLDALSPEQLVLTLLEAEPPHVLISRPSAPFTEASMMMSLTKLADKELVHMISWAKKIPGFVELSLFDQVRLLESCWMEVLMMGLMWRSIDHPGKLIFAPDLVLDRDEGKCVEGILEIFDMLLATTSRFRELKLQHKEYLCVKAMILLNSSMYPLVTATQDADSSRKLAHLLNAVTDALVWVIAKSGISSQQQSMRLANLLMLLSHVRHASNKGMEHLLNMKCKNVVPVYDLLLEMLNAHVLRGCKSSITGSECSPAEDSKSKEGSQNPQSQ

DU-145 = assay: Antiproliferative activity against human DU-145 cells assessed as reduction in cell viability incubated for 48 hrs by MTT assay; format: functional, cell-based; conditions: DU-145, 48 h
[3] = target: T1, von Hippel-Lindau disease tumor suppressor/Estrogen receptor (Homo sapiens, UniProt P03372+P40337); assay: PROTAC activity at VHL/ERalpha in human MCF7 cells assessed as induction of ERalpha degradation at 5 uM by Western blot analysis; format: cell-based
Target sequence in this assay (P40337 whole entry, looked up, one chain of several): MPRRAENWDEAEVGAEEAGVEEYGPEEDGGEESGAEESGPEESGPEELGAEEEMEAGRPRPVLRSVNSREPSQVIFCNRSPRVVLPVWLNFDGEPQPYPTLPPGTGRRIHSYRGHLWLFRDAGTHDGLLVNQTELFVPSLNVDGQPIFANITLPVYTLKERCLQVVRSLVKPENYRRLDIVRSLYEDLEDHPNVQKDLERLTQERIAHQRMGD

[4] = Selectivity ratio of RBA for ERalpha (unknown origin) to RBA for ERbeta (unknown origin)
[5] = target: T2, Estrogen receptor (Homo sapiens) (UniProt P03372); assay: Binding affinity to ERalpha (unknown origin) assessed as relative binding affinity incubated for 2 hrs in presence of coumestrol by fluorescence polarization based competitive binding assay relative to estradiol
T2 sequence (whole entry): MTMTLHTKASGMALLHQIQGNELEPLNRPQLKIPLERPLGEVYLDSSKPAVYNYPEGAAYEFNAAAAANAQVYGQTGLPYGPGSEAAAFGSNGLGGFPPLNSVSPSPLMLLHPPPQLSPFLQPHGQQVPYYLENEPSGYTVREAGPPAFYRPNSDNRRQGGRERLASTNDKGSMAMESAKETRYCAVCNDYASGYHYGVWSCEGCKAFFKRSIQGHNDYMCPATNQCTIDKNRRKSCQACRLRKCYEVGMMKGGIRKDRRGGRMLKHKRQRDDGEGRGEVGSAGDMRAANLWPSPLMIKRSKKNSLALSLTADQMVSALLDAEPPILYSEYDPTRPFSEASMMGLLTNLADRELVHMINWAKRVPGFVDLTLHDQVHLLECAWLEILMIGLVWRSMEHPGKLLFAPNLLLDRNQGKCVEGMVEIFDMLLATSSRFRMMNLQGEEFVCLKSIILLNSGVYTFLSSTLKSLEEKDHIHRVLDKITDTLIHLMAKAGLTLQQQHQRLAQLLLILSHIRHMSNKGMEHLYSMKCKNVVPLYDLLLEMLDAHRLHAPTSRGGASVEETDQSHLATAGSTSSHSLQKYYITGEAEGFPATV

MCF7 [6] = assay: Effect on ERalpha expression in human MCF7 cells at 5 uM incubated for 24 hrs by Western blot analysis; format: functional, cell-based
[7] = target: T1, von Hippel-Lindau disease tumor suppressor/Estrogen receptor; assay: PROTAC activity at VHL/ERalpha in human MCF7 cells assessed as induction of ERalpha degradation incubated for 24 hrs by Western blot analysis; format: cell-based
Target sequence in this assay (P40337 whole entry, one chain of several): as the sequence (P40337 whole entry, looked up, one chain of several) above

[8] = Chemical reactivity of compound to methionine assessed as change in fluorescence response; format: physicochemical
[9] = Chemical reactivity of compound to NaHCO3 assessed as change in fluorescence response; format: physicochemical
[10] = Drug uptake in ER positive human MCF7 cells assessed as increase in red fluorescence at 10 uM incubated for 30 mins in glucose-depleted DMEM medium by confocal laser scanning microscopic analysis; format: ADME, cell-based; conditions: mcf7, 0.5 h
[11] = Chemical reactivity of compound to glycine assessed as change in fluorescence response; format: physicochemical
[12] = target: T1, von Hippel-Lindau disease tumor suppressor/Estrogen receptor; assay: PROTAC activity at VHL/ERalpha in human MCF7 cells assessed as induction of ERalpha degradation at 0.5 uM incubated for 24 hrs in presence of VHL ligand by Western blot analysis; format: cell-based
Target sequence in this assay (P40337 whole entry, looked up, one chain of several): as the sequence (P40337 whole entry, looked up, one chain of several) above

[13] = Drug uptake in human MCF7 cells assessed as increase in red fluorescence at 10 uM measured after 24 hrs by confocal laser scanning microscopic analysis; format: ADME, cell-based; conditions: mcf7, 24 h
[14] = Photostability of the compound in DMSO/PBS solution assessed as decrease in fluorescence intensity at 466 nm excitation with Hamamatsu LC8 lightning cure (300 W) light for 2 hrs by fluorescence based analysis relative to initial value; format: physicochemical; parameters: dose or concentration left out as unconfirmed; conditions: read-out: Activity
[15] = target: T1, von Hippel-Lindau disease tumor suppressor/Estrogen receptor; assay: PROTAC activity at VHL/ERalpha in human MCF7 cells assessed as induction of ERalpha degradation at 0.5 uM incubated for 24 hrs in presence of MG132 by Western blot analysis; format: cell-based
Target sequence in this assay (P40337 whole entry, looked up, one chain of several): as the sequence (P40337 whole entry, looked up, one chain of several) above

[16] = Chemical reactivity of compound to […] assessed as change in fluorescence response; format: physicochemical
[17] = Chemical reactivity of compound to MgCl2 assessed as change in fluorescence response; format: physicochemical
[18] = Chemical reactivity of compound to CaCl2 assessed as change in fluorescence response; format: physicochemical
[19] = GSH reactivity of compound assessed as change in fluorescence response; format: physicochemical
[20] = target: T1, von Hippel-Lindau disease tumor suppressor/Estrogen receptor; assay: PROTAC activity at VHL/ERalpha in human MCF7 cells assessed as induction of ERalpha degradation at 0.05 to 0.5 uM incubated for 24 hrs in presence of 4-OHT by Western blot analysis; format: cell-based; conditions: dose 0.05-0.5 µM
Target sequence in this assay (P40337 whole entry, looked up, one chain of several): as the sequence (P40337 whole entry, looked up, one chain of several) above

[21] = Drug uptake in ER positive human MCF7 cells assessed as increase in red fluorescence at 10 uM incubated for 30 mins in glucose-depleted DMEM medium in presence of estradiol by confocal laser scanning microscopic analysis; format: ADME, cell-based; conditions: mcf7, 0.5 h
[22] = Chemical reactivity of compound to lysine assessed as change in fluorescence response; format: physicochemical
[23] = Chemical reactivity of compound to NaNO2 assessed as change in fluorescence response; format: physicochemical
[24] = target: T1, von Hippel-Lindau disease tumor suppressor/Estrogen receptor; assay: PROTAC activity at VHL/ERalpha in human MCF7 cells assessed as induction of ERalpha degradation by measuring decrease in green fluorescence at 10 uM measured after 24 hrs by anti-ERalpha based immunofluorescence analysis; format: cell-based
Target sequence in this assay (P40337 whole entry, looked up, one chain of several): as the sequence (P40337 whole entry, looked up, one chain of several) above

[25] = Chemical reactivity of compound to KCl assessed as change in fluorescence response; format: physicochemical

SMILES | IC50 (MCF7 [1]) | RBA [2] | IC50 (DU-145) | Activity [3] | Selectivity ratio [4] | RBA [5] | also measured
C[C@]12CC[C@@H]3c4ccc(O)cc4C[C@@H](CCCCCCCCC[S+]([O-])CCCC(F)(F)C(F)(F)F)[C@H]3[C@@H]1CC[C@@H]2O (stereo not given in full) [FULVESTRANT] | 0.003 µM | – | – | – | – | – | –
CC(C)C[C@@H](C=O)NC(=O)[C@H](CC(C)C)NC(=O)[C@H](CC(C)C)NC(=O)OCc1ccccc1 (Cbz-Leu-Leu-Leu-aldehyde) | – | – | – | – | – | – | Activity (MCF7 [6]): inactive
Cc1ncsc1-c1ccc([C@H](C)NC(=O)[C@@H]2C[C@@H](O)CN2C(=O)[C@@H](NC(=O)CCCCCCCCCOc2cc(O)ccc2/C=C/C2=CC(=C(C#N)C#N)c3cc(O)ccc3O2)C(C)(C)C)cc1 | 0.051 µM | 3.94% | > 100 µM | Active | 2.03 | 7.99% | DC50 [7]: 0.12 µM; Activity [8]: Not_active; Activity [9]: Not_active; Drug uptake [10]: Active; Activity [11]: Not_active; Activity [12]: inactive; Drug uptake [13]: Active; degraded at 2 h [14]: < 5%; Activity [15]: Not active; Mg132 Partly Blocked The Degradation; Activity [16]: Not_active; Activity [17]: Not_active; Activity [18]: Not_active; Drug metabolism [19]: metabolite_notdetected; Activity [20]: inactive; Drug uptake [21]: Not_active; Activity [22]: Not_active; Activity [23]: Not_active; Activity [24]: Active; Nearly Complete Disappearance Of Fluorescence Observed; Activity [25]: Not_active
Cc1ncsc1-c1ccc([C@H](C)NC(=O)[C@@H]2C[C@@H](O)CN2C(=O)[C@@H](NC(=O)CCCCCCCCCCCOc2cc(O)ccc2/C=C/C2=CC(=C(C#N)C#N)c3cc(O)ccc3O2)C(C)(C)C)cc1 | 33.5 µM | 1.4% | > 100 µM | Active | 1.51 | 2.11% | –

Now from value to compound, other results behind:

IC50 (MCF7 [1]) | RBA [2] | IC50 (DU-145) | Activity [3] | Selectivity ratio [4] | RBA [5] | SMILES | also measured
0.11 µM | 0.65% | > 100 µM | Active | 3.79 | 2.48% | Cc1ncsc1-c1ccc([C@H](C)NC(=O)[C@@H]2C[C@@H](O)CN2C(=O)[C@@H](NC(=O)CCCCCCCOc2cc(O)ccc2/C=C/C2=CC(=C(C#N)C#N)c3cc(O)ccc3O2)C(C)(C)C)cc1 | –
> 100 µM | 2.48% | > 100 µM | Active | 1.48 | 3.69% | Cc1ncsc1-c1ccc([C@H](C)NC(=O)[C@@H]2C[C@@H](O)CN2C(=O)[C@@H](NC(=O)CCCCCOc2cc(O)ccc2/C=C/C2=CC(=C(C#N)C#N)c3cc(O)ccc3O2)C(C)(C)C)cc1 | –
